Paper PMC5410595, “In Vitro and In Silico Antidiabetic and Antimicrobial Evaluation of Constituents from Kickxia ramosissima (Nanorrhinum ramosissimum)” (Frontiers in Pharmacology, 2017)
“Also recorded” adds a separate entry of the source. Read-outs that look alike come from different tables or passages of the source.

What was measured:
Assay type in all cases: biochemical
[1] = system: formation of AGEs (BSA-MGO); assay: BSA-MGO antiglycation assay; conditions: for Protein glycation BSA-MGO % inhibition: isolated constituents, highest test concentration; for IC50: read-out: Protein glycation BSA-MGO IC50
Protocol: The BSA-glucose and BSA-MGO antiglycation assays were performed as reported before ([Amin et al., 2016]). The test protocol is attached as Supplementary Material ([Amin et al., 2016]).
60 Protein-glyoxal interaction (BSA-MGO assay)
61 The antiglycation assay using methylgloxyl (MGO) was performed according to the method
62 developed by Peng et al. (2007) with slight modifications. Briefly, methylglyoxal (135 μL, 5.75
63 mM) was incubated with BSA (135 μL, 10 mg/mL) dissolved in phosphate buffer (50 mM, pH
64 7.4, containing sodium azide (0.02%), added to prevent bacterial growth) and test compounds
65 (30 μL) at different final concentrations (1.5 – 0.023 mM) in 100% DMSO. The reaction
66 mixture was incubated at 37 °C for one week. Control solutions only contained methylglyoxal
67 (135 μL, 5.75 mM) BSA (135 μL, 1 0mg/mL) and DMSO (100%) only. The blank samples of
68 similar composition were also prepared simultaneously and kept at 4 °C for one week. The
70 440) due to formation of AGEs was monitored by spectrofluorometry (Tecan® Infinite M200,
71 Giessen, The Netherlands). Aminoguanidine (3-0.046 mM final concentration) was used as
72 reference compound. The AGEs inhibition was calculated as
74 % AGEs inhibition = [1–(S–Sb)/(C–Cb)] x 100
76 where S and C were fluorescence of test samples (in DMSO) and control (test mixtures
77 containing only DMSO) incubated at 37 °C, and where Sb and Cb were fluorescence for
78 samples incubated at 4 °C.
79 using Sigma plot® 13.0.

15-LOX from soybean = target: T1, 15-LOX from soybean (Glycine max, UniProt P08170); assay: 15-lipoxygenase inhibition assay
T1 sequence (P08170 1-839): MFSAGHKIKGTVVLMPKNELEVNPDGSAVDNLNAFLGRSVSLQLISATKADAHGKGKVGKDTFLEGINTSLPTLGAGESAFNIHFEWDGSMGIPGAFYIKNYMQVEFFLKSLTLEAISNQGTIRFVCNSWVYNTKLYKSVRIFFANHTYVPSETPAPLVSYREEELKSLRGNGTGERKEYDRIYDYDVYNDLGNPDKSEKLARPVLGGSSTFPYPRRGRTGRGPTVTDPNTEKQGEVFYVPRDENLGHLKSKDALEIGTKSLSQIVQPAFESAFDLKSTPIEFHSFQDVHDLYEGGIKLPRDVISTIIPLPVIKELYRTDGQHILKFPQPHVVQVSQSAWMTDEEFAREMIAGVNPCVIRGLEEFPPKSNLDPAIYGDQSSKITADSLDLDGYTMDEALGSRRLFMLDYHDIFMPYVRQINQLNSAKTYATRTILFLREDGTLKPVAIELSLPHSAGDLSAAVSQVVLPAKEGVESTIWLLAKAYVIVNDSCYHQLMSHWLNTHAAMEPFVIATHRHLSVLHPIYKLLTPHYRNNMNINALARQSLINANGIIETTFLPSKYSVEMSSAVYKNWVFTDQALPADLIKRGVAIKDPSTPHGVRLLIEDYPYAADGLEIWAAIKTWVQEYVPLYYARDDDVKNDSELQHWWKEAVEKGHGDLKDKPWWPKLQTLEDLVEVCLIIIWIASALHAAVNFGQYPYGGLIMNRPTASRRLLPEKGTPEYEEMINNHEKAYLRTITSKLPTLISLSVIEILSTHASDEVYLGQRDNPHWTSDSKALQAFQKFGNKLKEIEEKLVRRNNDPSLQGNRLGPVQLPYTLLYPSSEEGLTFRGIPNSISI
Protocol: The soybean LOX assay is used as an indication of anti-inflammatory activity ([Muller, 1994]), and therefore during the present investigation, 15-LOX from soybean was used for peroxidation of linoleic acid, and inhibition was measured as described previously with slight modifications ([Malterud and Rydland, 2000]). Briefly, 12.5 μL (2–0.062 mM) of sample was dissolved in DMSO, and added to 487.5 μL of enzyme solution (200 U/mL). The mixture was incubated at room temperature for 5 min. Absorbance was recorded immediately after the addition of 500 μL of substrate (250 μM linoleic acid in 0.2 M borate buffer, pH 9) every minute up to 5 min at 234 nm.
% inhibition of enzyme activity was calculated as,
%inhibition of enzyme activity=([ΔA1/Δt]−[ΔA2/Δt])/(ΔA1/Δt)×100
where ΔA1/Δt and ΔA2/Δt are the increase rate in absorbance at 234 nm for sample without test substance and with test substance, respectively.

[2] = system: AAPH induced linoleic acid peroxidation; assay: Inhibition of linoleic acid lipid peroxidation, AAPH assay; conditions: slope of inhibition time (Tinh) vs. concentration of antioxidant
Protocol: The inhibition of linoleic acid lipid peroxidation was studied according to [Liegeois et al. (2000)] and [Rajic et al. (2010)]. Briefly, 10 μL of a 16 mM linoleic acid dispersion and 10 μL of the test compound (8-1 μM final concentration) were added to the UV cuvette containing 0.93 mL of 0.05 M phosphate buffer, pH 7.4. The oxidation reaction was initiated under air by the addition of 50 μL (40 mM) of AAPH solution. The rate of oxidation at 37°C was monitored by recording the increase of absorption at 234 nm caused by conjugated diene hydroperoxides. The results were compared to the standard inhibitor (Trolox). The AOP is defined as the slope of the curve representing the inhibition time of oxidation (Tinh) vs. the concentration of antioxidant and is expressed in min/μM.

[3] = at the highest test concentration

Compound | Protein glycation BSA-MGO % inhibition [1] | 15-LOX assay % inhibition (15-LOX from soybean; [3]) [%] | AAPH assay AOP (antioxidant power) [2] | IC50 (15-LOX from soybean) [µM] | IC50 [1] [µM] | 15-LOX assay % inhibition (15-LOX from soybean) [%] | IC50 (15-LOX from soybean; read-out: 15-LOX IC50) [µM]
COC(=O)c1ccc(O)cc1 [Compound 7, 4-Hydroxy benzoic acid methyl ester] | did not present any inhibition; also recorded: no activity | 30 | did not present any activity; also recorded: Not active |  |  |  | 
CO[C@H]1C[C@@]2(O)[C@H](O)[C@@H](O)[C@](C)(OC)[C@H]2[C@@H](OC)O1 [Compound 1, Kickxiasine] | 31% | 30 | 0.3 min/µM |  |  |  | 
COC(=O)C1=COC(OC2OC(CO)C(O)C(O)C2O)C2C1CCC2(C)O (stereo not drawn) [Compound 3, Mussaenoside] | 24% | 37 | 0.1 min/µM |  |  |  | 
CC1(O)CCC2C(C(=O)O)=COC(OC3OC(CO)C(O)C(O)C3O)C21 (stereo not drawn) [Compound 2, Mussaenosidic acid] | 23% |  | 0.2 min/µM | 220 |  |  | 
COc1ccc(-c2cc(=O)c3c(O)c(OC)c(O)cc3o2)cc1 [Compound 5, Pectolinarigenin] |  |  | 0.2 min/µM |  | 190 | 46 | 
COc1ccc(-c2cc(=O)c3c(O)c(OC)c(O[C@@H]4O[C@H](CO[C@@H]5O[C@@H](C)[C@H](O)[C@@H](O)[C@H]5O)[C@@H](O)[C@H](O)[C@H]4O)cc3o2)cc1 [Compound 6, Pectolinarin] |  |  | 0.3 min/µM |  | 130 |  | 250
